These are literature values, as cited in patent publication US20150071857A1, “STEROID HORMONE AND CHOLESTEROL PATHWAYS AS ONE UNIFIED HOMEOSTATIC SYSTEM” (LIGAND PHARMACEUTICALS, INC., priority 2012, published 2015).

The structures appear in SMILES notation. Where two headings read alike, the source gives them in different places.

The conditions of series [1]: parenterally formulated progestin-only contraceptive, women.
For series [2] the following is noted: large WHI trials.
For series [3] the following is noted: high-dose, postmenopausal women.
For series [4] the following is noted: high dose, on top of statin therapy.

For `CC(=O)O[C@]1(C(C)=O)CC[C@H]2[C@@H]3C[C@H](C)C4=CC(=O)CC[C@]4(C)[C@H]3CC[C@@]21C` [Medroxyprogesterone acetate], the HDL-C change result in series [1] is “significant reduction in HDL-C”. Also, the thrombosis events result in series [2] is reported as “doubled the thrombosis events”.
On to `O=c1c(-c2ccccc2)coc2ccccc12` [isoflavone], for which, in series [3], the HDL-C change entry was “significantly reduced” and the “total T change” value is “significantly reduced”.
For the molecule `O=C(O)c1cccnc1` [niacin], the cardiovascular events result in series [4] was “no significant reduction in cardiovascular events”.
